These results are taken from patent publication US9221783B2, “Phenylalkyl sulfamate compound and muscle relaxant composition comprising the same” (BIO-PHARM SOLUTIONS CO., LTD., priority 2012, dated 2015).

One test has as its system male mice (ICR). Briefly: Muscle relaxation activity by grip strength test (forelimbs). It counts as in vivo. Conditions: Mus musculus, ip, intraperitoneal, ED50 = 50% of muscle relaxation activity compared to vehicle only (100%), determined at 0.5 h (time of maximum effect). The procedure: For testing, male mice (ICR) were purchased from ORIENT BIO INC. (Korea), divided into several groups with 6 mice in each group, and were adapted for 4-5 days. The mice having the weight ranging from 19 g to 26 g were employed for the test. The pharmacological effect of the test compounds on muscle relaxation was evaluated by Rotarod test, grip strength test, and muscular force (wire hang) test. All mice were adapted to the test environment at one hour before starting the tests. The pharmacological effects of all the test compounds were evaluated by administration through peritoneal cavity of the mice (10 ul/g, bw).
The test was conducted before and after administration of the compounds to evaluate the effects thereof. […] The mouse was made to grip the rod with its forelimbs, and its tail was pulled, where the force at which the mouse detached from the rod was recorded. The instrument indicated the force in grams. All of the mice were given 3 opportunities for test, and the 3 highest values among the test opportunities were selected and the mean value was used as the test result. […] Psychopharmacol. 110: 92-96’.
The obtained results are shown as mean±sem. The difference between the groups was statistically analyzed by ANOVA, and then, further examined by Dunnett's test or Bonferroni test. If p is less than 0.05, it was determined that the difference between the groups had statistical significance.
In general, ED50 refers to the midpoint of the dose-response relation. In turn, `CC1(C)O[C@H](c2ccccc2I)[C@@H](COS(N)(=O)=O)O1` [Example 27, ((4R,5R)-5-(2-iodophenyl)-2,2-dimethyl-1,3-dioxolan-4-yl)methyl sulfamate] returned an ED50 of 378 mg/kg.

Still in this test, the particulars now being: intraperitoneal, dose 200 (unit not given).
Turning to `CCC1(CC)O[C@@H](COS(N)(=O)=O)[C@H](c2ccccc2Cl)O1` [Example 8, ((4S,4S)-5-(2-chlorophenyl)-2,2-diethyl-1,3-dioxolan-4-yl)methyl sulfamate], the “Grip strength, percentage compared to the vehicle only (100%)” value (from here on “Grip strength, percentage … (100%)”) was 200 (59.6%).
As for `NS(=O)(=O)OC[C@@H]1OC2(CCCC2)O[C@H]1c1ccccc1Cl` [Example 10, ((2S,3S)-3-(2-chlorophenyl)-1,4-dioxaspiro[4,4]nonan-2-yl)methyl sulfamate], the “Grip strength, percentage … (100%)” value was 200 (91.2%).
Still for that read-out and setting: to `NS(=O)(=O)OC[C@@H]1OC2(CCCCC2)O[C@H]1c1ccccc1Cl` [Example 12, ((2S,3S)-3-(2-chlorophenyl)-1,4-dioxaspiro[4,5]decan-2-yl)methyl sulfamate] belongs 200 (57.7%); to `CC1(C)O[C@@H](COS(N)(=O)=O)[C@H](c2ccc(Cl)cc2Cl)O1` [Example 40, ((4S,5S)-5-(2,4-dichlorophenyl)-2,2-dimethyl-1,3-dioxolan-4-yl)methyl sulfamate], 200 (79.3%); to `CC1(C)O[C@@H](COS(N)(=O)=O)[C@H](c2c(Cl)cccc2Cl)O1` [Example 52, ((4S,5S)-5-(2,6-dichlorophenyl)-2,2-dimethyl-1,3-dioxolan-4-yl)methyl sulfamate], 200 (28.2%).
Still for that read-out and setting: to `CCC1(CC)O[C@@H](COS(N)(=O)=O)[C@H](c2ccccc2N)O1` [Example 70, ((4S,5S)-5-(2-aminophenyl)-2,2-diethyl-1,3-dioxolan-4-yl)methyl sulfamate] belongs 200 (78.6%); to `Nc1ccccc1[C@@H]1OC2(CCCC2)O[C@H]1COS(N)(=O)=O` [Example 72, ((2S,3S)-3-(2-aminophenyl)-1,4-dioxaspiro[4,4]nonan-2-yl)methyl sulfamate], 200 (87.0%).
Consider `Nc1ccccc1[C@@H]1OC2(CCCCC2)O[C@H]1COS(N)(=O)=O` [Example 74, ((2S,3S)-3-(2-aminophenyl)-1,4-dioxaspiro[4,5]decan-2-yl)methyl sulfamate], for which the “Grip strength, percentage … (100%)” value is given as 200 (88.1%).
Take `Nc1ccccc1[C@@H]1OC(c2ccccc2)O[C@H]1COS(N)(=O)=O` (stereo partly drawn) [Example 76, ((4S,5S)-5-(2-aminophenyl)-2-phenyl-1,3-dioxolan-4-yl)methyl sulfamate]: the “Grip strength, percentage … (100%)” value is given as 200 (78.5%).
Consider `NS(=O)(=O)OC[C@@H]1OC(=O)O[C@H]1c1ccccc1[N+](=O)[O-]` [Example 90, ((4S,5S)-5-(2-nitrophenyl)-2-oxo-1,3-dioxolan-4-yl)methyl sulfamate], for which the “Grip strength, percentage … (100%)” value was 200 (43.8%).
Same read-out and setting: next, `Cc1ccccc1[C@@H]1OC(C)(C)O[C@H]1COS(N)(=O)=O` [Example 92, ((4S,5S)-5-(2-methylphenyl)-2,2-dimethyl-1,3-dioxolan-4-yl)methyl sulfamate]: 200 (46.2%); `CNc1ccccc1[C@@H]1OC(C)(C)O[C@H]1COS(=O)(=O)NC` [Example 104, ((4S,5S)-5-(2-methylaminophenyl)-2,2-dimethyl-1,3-dioxolan-4-yl)methyl methylsulfamate]: 200 (71.3%); `CC1(C)O[C@@H](COS(N)(=O)=O)[C@H](c2ccccc2)O1` [Example 106, ((4S,5S)-5-phenyl-2,2-dimethyl-1,3-dioxolan-4-yl)methyl sulfamate]: 200 (62.8%).
Turning to `CCC1(CC)O[C@@H](COS(N)(=O)=O)[C@H](c2ccccc2)O1` [Example 108, ((4S,5S)-5-phenyl-2,2-diethyl-1,3-dioxolan-4-yl)methyl sulfamate], the “Grip strength, percentage … (100%)” value is 200 (66.8%).
The same measure, in the same setting: to `NS(=O)(=O)OC[C@@H]1OC2(CCCC2)O[C@H]1c1ccccc1` [Example 110, ((2S,3S)-3-phenyl-1,4-dioxaspiro[4,4]nonan-2-yl)methyl sulfamate] belongs 200 (62.9%); to `NS(=O)(=O)OC[C@@H]1OC2(CCCCC2)O[C@H]1c1ccccc1` [Example 112, ((2S,3S)-3-phenyl-1,4-dioxaspiro[4,5]decan-2-yl)methyl sulfamate], 200 (33.2%); to `CC1(C)O[C@H](CCOS(N)(=O)=O)[C@@H](Cc2ccccc2)O1` [Example 114, 2-((4R,5R)-5-benzyl-2,2-dimethyl-1,3-dioxolan-4-yl)ethyl sulfamate], 200 (75.4%).
Same read-out and setting: next, `CCC1(CC)O[C@H](CCOS(N)(=O)=O)[C@@H](Cc2ccccc2)O1` [Example 116, 2-((4R,5R)-5-benzyl-2,2-diethyl-1,3-dioxolan-4-yl)ethyl sulfamate]: 200 (81.6%); `NS(=O)(=O)OCC[C@H]1OC2(CCCC2)O[C@@H]1Cc1ccccc1` [Example 118, 2-((2R,3R)-3-benzyl-1,4-dioxaspiro[4,4]nonan-2-yl)ethyl sulfamate]: 200 (83.7%).
On the same count and under the same terms, to `NS(=O)(=O)OCC[C@H]1OC2(CCCCC2)O[C@@H]1Cc1ccccc1` [Example 120, 2-((2R,3R)-3-benzyl-1,4-dioxaspiro[4,5]decan-2-yl)ethyl sulfamate] belongs 200 (80.5%); to `CC1(C)O[C@H](COS(N)(=O)=O)[C@@H](Cc2ccccc2)O1` [Example 122, ((4R,5R)-5-benzyl-2,2-dimethyl-1,3-dioxolan-4-yl)methyl sulfamate], 200 (61.6%).
For the compound `CCC1(CC)O[C@H](COS(N)(=O)=O)[C@@H](Cc2ccccc2)O1` [Example 124, ((4R,5R)-5-benzyl-2,2-diethyl-1,3-dioxolan-4-yl)methyl sulfamate], the “Grip strength, percentage … (100%)” value is reported as 200 (81.0%).
The same measure, in the same setting: to `NS(=O)(=O)OC[C@H]1OC2(CCCC2)O[C@@H]1Cc1ccccc1` [Example 126, ((2R,3R)-3-benzyl-1,4-dioxaspiro[4,4]nonan-2-yl)methyl sulfamate] belongs 200 (76.7%).
Same read-out and setting: next, `NS(=O)(=O)OC[C@H]1OC2(CCCCC2)O[C@@H]1Cc1ccccc1` [Example 128, ((2R,3R)-3-benzyl-1,4-dioxaspiro[4,5]decan-2-yl)methyl sulfamate]: 200 (81.4%).
Take `CC1(C)O[C@@H](CCOS(N)(=O)=O)[C@H](c2ccccc2)O1` [Example 130, 2-((4S,5S)-5-phenyl-2,2-dimethyl-1,3-dioxolan-4-yl)ethyl sulfamate]: the “Grip strength, percentage … (100%)” value is reported as 200 (91.4%).
Same read-out and setting: to `CCC1(CC)O[C@@H](CCOS(N)(=O)=O)[C@H](c2ccccc2)O1` [Example 132, 2-((4S,5S)-5-phenyl-2,2-diethyl-1,3-dioxolan-4-yl)ethyl sulfamate] belongs 200 (25.7%).
